Here are results for 5 molecules from ChEMBL document CHEMBL3808386, “Targeting Mitogen-Activated Protein Kinase-Activated Protein Kinase 2 (MAPKAPK2, MK2): Medicinal Chemistry Efforts To Lead Small Molecule Inhibitors to Clinical Trials” (J Med Chem, 2016).

Some results are limits rather than exact numbers.

Series [1] concerns the target T1, MAP kinase-activated protein kinase 2 (Homo sapiens, UniProt P49137). The series can be described thus: Inhibition of recombinant human N-terminal GST-tagged MK2 (46 to 400 residues) expressed in Escherichia coli in presence of radiolabelled ATP by radiometric assay.
Target sequence in this assay (P49137 whole entry, the tested form may be a part): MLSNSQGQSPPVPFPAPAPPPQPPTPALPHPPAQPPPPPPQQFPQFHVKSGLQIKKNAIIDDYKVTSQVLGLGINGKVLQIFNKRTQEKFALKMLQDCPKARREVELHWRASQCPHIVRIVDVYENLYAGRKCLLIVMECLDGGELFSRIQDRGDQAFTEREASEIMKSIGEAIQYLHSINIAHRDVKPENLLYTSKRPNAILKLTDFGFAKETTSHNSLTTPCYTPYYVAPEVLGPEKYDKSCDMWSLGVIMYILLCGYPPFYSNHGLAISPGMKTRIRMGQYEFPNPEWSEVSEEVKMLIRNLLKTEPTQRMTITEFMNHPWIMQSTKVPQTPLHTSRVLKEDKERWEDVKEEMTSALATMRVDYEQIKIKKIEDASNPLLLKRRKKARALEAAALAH
Series [2] deals with Myosin light chain kinase, smooth muscle (Homo sapiens) (UniProt Q15746). The series can be described thus: Inhibition of recombinant human N-terminal His6-tagged MLCK (1425 to 1771 residues) expressed in baculovirus infected Sf21 cells assessed as residual activity at 300 uM in presence of radiolabelled ATP by radiometric assay relative to control.
The target of series [3] is Mitogen-activated protein kinase 14 (Homo sapiens) (UniProt Q16539). The series can be described thus: Inhibition of full length recombinant human N-terminal GST-tagged p38alpha MAP kinase expressed in Escherichia coli assessed as residual activity at 300 uM in presence of radiolabelled ATP by radiometric assay relative to control.
Series [4] has as its target T2, Interleukin-1 receptor-associated kinase 4 (Homo sapiens) (UniProt Q9NWZ3).
T2 sequence (whole entry): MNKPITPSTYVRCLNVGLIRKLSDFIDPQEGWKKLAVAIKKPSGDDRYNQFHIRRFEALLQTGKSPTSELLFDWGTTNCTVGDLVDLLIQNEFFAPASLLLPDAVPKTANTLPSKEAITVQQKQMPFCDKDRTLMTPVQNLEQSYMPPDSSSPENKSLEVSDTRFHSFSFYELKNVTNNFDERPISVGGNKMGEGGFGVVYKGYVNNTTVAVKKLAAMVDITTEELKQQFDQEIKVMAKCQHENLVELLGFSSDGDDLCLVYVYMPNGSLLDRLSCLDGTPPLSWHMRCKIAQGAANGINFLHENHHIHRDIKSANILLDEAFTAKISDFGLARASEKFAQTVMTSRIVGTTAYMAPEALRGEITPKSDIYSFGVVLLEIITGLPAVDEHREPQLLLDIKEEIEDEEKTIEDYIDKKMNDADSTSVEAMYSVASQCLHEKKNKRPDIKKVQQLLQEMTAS
As to the kind of experiment: Inhibition of full length recombinant human N-terminal His6-tagged IRAK4 expressed in baculovirus infected Sf21 cells assessed as residual activity at 300 uM in presence of radiolabelled ATP by radiometric assay relative to control.

Series [5] deals with Protein kinase C delta type (Homo sapiens) (UniProt Q05655). As to the kind of experiment: Inhibition of recombinant human N-terminal His6-tagged amino acids 2-end of PKCdelta expressed in Sf21 cells assessed as residual activity at 300 uM in presence of radiolabelled ATP by radiometric assay relative to control.
Series [6] has as its target Rho-associated protein kinase 1 (Homo sapiens) (UniProt Q13464). As to the kind of experiment: Inhibition of recombinant human N-terminal His6-tagged ROCK1 (17 to 535 residues) expressed in baculovirus infected Sf21 cells assessed as residual activity at 300 uM in presence of radiolabelled ATP by radiometric assay relative to control.
Series [7] has as its target RAC-beta serine/threonine-protein kinase (Homo sapiens) (UniProt P31751). The series can be described thus: Inhibition of recombinant human N-terminal His6-tagged PKBbeta (120 to 481 residues) expressed in baculovirus infected Sf21 cells assessed as residual activity at 300 uM in presence of radiolabelled ATP by radiometric assay relative to control.
The test system of series [8] is Canis familiaris. The series can be described thus: Hepatotoxicity in beagle dog assessed as increase in serum bile acids at 750 mg/kg, po qd administered as single dose through gavage by LC-MS/MS analysis relative to control. The class given is toxicity, organism-based, Canis lupus familiaris. The following applies: in vivo.
For series [9], the system named is Canis familiaris. As to the kind of experiment: Hepatotoxicity in beagle dog assessed as increase in total bilirubin at 750 mg/kg, po qd administered as single dose through gavage by LC-MS/MS analysis relative to control. The class given is toxicity, organism-based, Canis lupus familiaris. The settings on record: in vivo.
Series [10] in a line: Inhibition of MRP2 in MDCK cells after 15 mins by Calcein-AM assay. The class given is cell-based, Canis lupus familiaris.
Series [11] is described as follows: Inhibition of P-gp in MDCK-MDR1 cells after 30 mins by Calcein-AM assay. Type of series: cell-based, Canis lupus familiaris.
The subject of another series is U-937. The series can be described thus: Inhibition of LPS-induced TNFalpha production in human U937 cells preincubated for 1 hr followed by LPS addition measured after 4 hrs by electro-chemiluminescence method. The class given is functional, cell-based.
Series [12] concerns Rattus norvegicus. As to the kind of experiment: Anti-inflammatory activity in Lewis rat model of Streptococcal cell wall-induced arthritis assessed as reduction in chronic hind paw swelling up to 100 mg/kg, po bid administered through gavage for 10 to 21 days measured on day 21 by displacement plethysmometric method relative to control. The class given is functional.
The target in a further series is Bile salt export pump (Homo sapiens, UniProt O95342). The series can be described thus: Inhibition of human BSEP expressed in recombinant baculovirus infected insect Sf9 cell membrane vesicles assessed as [3H]-taurocholate transport preincubated for 5 mins followed by ATP or AMP addition measured after 5 mins by scintillation counting method.
Series [13] can be described thus: Terminal half life in Sprague-Dawley rat plasma at 3 mg/kg, po. Type of series: ADME, organism-based. The following applies: read-out: beta t1/2 (converted).
The subject of series [14] is Rattus norvegicus. As to the kind of experiment: Anti-inflammatory activity in po dosed Lewis rat model of LPS-induced acute endotoxemia inflammation assessed as inhibition of LPS-induced TNFalpha production administered through gavage pretreated for 4 hrs followed by LPS challenge measured after 90 mins by ELISA relative to control. Type of series: functional. (In an ELISA, binding on a coated surface is turned into a signal by an enzyme label.)

Series [15] addresses T1, MAP kinase-activated protein kinase 2. The series can be described thus: Inhibition of MK2 in human U937 cells assessed as reduction in LPS-stimulated HSP27 phosphorylation at Ser82 preincubated for 1 hr followed by LPS addition measured after 30 mins by Western blot analysis. Type of series: cell-based, U-937. (Immunoblotting shows a protein as a band on a membrane.)
Target sequence in this assay (P49137 whole entry, the tested form may be a part): as the sequence (P49137 whole entry, the tested form may be a part) above
The nature of series [16]: Tmax in Sprague-Dawley rat plasma at 3 mg/kg, po. The class given is ADME, organism-based.
Series [17] concerns the target T1, MAP kinase-activated protein kinase 2. As to the kind of experiment: Inhibition of recombinant human N-terminal GST-tagged MK2 (46 to 400 residues) expressed in Escherichia coli assessed as reduction in recombinant human HSP27 phosphorylation at 200 uM after 30 mins by Western blot analysis relative to control.
Target sequence in this assay (P49137 whole entry, looked up, the tested form may be a part): as the sequence (P49137 whole entry, the tested form may be a part) above
Series [18] deals with Myosin light chain kinase, smooth muscle (Homo sapiens) (UniProt Q15746). As to the kind of experiment: Inhibition of recombinant human N-terminal His6-tagged MLCK (1425 to 1771 residues) expressed in baculovirus infected Sf21 cells assessed as residual activity at 30 uM in presence of radiolabelled ATP by radiometric assay relative to control.
For series [19], the target named is Protein kinase C delta type (Homo sapiens) (UniProt Q05655). As to the kind of experiment: Inhibition of recombinant human N-terminal His6-tagged amino acids 2-end of PKCdelta expressed in Sf21 cells assessed as residual activity at 30 uM in presence of radiolabelled ATP by radiometric assay relative to control.
Series [20] deals with Fibroblast. As to the kind of experiment: Inhibition of TGF-beta1-induced CTGF expression in serum-starved human keloid fibroblasts at 10 uM preincubated for 2 hrs followed TGF-beta1 addition measured after 24 hrs by Western blot analysis relative to control. The class given is functional.
In series [21] the target is Mitogen-activated protein kinase 14 (Homo sapiens) (UniProt Q16539). As to the kind of experiment: Inhibition of full length recombinant human N-terminal GST-tagged p38alpha MAP kinase expressed in Escherichia coli assessed as residual activity at 30 uM in presence of radiolabelled ATP by radiometric assay relative to control.
The target of series [22] is T2, Interleukin-1 receptor-associated kinase 4 (Homo sapiens). As to the kind of experiment: Inhibition of full length recombinant human N-terminal His6-tagged IRAK4 expressed in baculovirus infected Sf21 cells assessed as residual activity at 30 uM in presence of radiolabelled ATP by radiometric assay relative to control.
Series [23] relates to Fibroblast. As to the kind of experiment: Inhibition of TGF-beta1-induced collagen type 1 expression in serum-starved human keloid fibroblasts at 10 uM preincubated for 2 hrs followed TGF-beta1 addition measured after 24 hrs by Western blot analysis relative to control. Type of series: functional.
For series [24], the target named is RAC-beta serine/threonine-protein kinase (Homo sapiens) (UniProt P31751). The series can be described thus: Inhibition of recombinant human N-terminal His6-tagged PKBbeta (120 to 481 residues) expressed in baculovirus infected Sf21 cells assessed as residual activity at 30 uM in presence of radiolabelled ATP by radiometric assay relative to control.
Series [25] concerns the target Rho-associated protein kinase 1 (Homo sapiens) (UniProt Q13464). The series can be described thus: Inhibition of recombinant human N-terminal His6-tagged ROCK1 (17 to 535 residues) expressed in baculovirus infected Sf21 cells assessed as residual activity at 30 uM in presence of radiolabelled ATP by radiometric assay relative to control.

For orientation: IC50 means the midpoint of a concentration-inhibition curve. One may read the Tmax as the time from dosing to the highest level. By inhibition is commonly meant the share of the control response that was lost under treatment.

Sequence of Rho-associated protein kinase 1 (Homo sapiens) (Q13464 2-1354 limits assumed): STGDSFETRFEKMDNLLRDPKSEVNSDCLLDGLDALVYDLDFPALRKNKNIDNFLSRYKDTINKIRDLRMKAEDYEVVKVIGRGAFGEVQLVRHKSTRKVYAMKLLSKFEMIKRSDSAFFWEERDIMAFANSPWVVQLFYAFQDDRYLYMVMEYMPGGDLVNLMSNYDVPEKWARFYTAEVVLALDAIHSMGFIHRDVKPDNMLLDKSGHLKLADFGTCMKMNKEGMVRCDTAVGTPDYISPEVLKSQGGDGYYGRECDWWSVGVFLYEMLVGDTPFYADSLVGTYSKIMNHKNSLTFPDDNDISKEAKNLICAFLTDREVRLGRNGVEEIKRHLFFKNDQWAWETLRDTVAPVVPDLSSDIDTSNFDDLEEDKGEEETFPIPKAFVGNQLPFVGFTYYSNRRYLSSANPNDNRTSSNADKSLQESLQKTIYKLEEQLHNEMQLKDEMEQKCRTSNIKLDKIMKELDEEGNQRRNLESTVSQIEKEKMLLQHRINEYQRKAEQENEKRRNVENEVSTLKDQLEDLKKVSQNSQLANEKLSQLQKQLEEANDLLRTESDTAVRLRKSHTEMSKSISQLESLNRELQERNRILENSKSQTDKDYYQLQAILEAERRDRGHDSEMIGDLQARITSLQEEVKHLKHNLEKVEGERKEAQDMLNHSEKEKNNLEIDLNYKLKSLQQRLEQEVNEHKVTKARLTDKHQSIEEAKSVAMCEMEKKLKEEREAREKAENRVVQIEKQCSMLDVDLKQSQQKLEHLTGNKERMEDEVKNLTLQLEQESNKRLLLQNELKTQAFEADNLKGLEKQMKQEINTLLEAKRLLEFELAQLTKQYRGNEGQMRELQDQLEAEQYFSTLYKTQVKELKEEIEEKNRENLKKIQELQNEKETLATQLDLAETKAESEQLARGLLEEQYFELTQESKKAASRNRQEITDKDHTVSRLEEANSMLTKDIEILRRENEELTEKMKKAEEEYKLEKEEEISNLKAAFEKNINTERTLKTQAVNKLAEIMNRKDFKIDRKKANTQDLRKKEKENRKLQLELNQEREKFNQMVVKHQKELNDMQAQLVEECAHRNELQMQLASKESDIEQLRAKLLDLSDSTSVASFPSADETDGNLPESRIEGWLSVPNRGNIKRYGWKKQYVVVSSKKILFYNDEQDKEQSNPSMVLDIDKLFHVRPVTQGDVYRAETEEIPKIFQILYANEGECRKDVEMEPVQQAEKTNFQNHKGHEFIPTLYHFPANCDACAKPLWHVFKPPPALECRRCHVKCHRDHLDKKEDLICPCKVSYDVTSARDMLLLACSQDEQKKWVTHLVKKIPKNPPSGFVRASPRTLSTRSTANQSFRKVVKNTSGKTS
Sequence of Protein kinase C delta type (Homo sapiens) (Q05655 whole entry, looked up, the tested form may be a part): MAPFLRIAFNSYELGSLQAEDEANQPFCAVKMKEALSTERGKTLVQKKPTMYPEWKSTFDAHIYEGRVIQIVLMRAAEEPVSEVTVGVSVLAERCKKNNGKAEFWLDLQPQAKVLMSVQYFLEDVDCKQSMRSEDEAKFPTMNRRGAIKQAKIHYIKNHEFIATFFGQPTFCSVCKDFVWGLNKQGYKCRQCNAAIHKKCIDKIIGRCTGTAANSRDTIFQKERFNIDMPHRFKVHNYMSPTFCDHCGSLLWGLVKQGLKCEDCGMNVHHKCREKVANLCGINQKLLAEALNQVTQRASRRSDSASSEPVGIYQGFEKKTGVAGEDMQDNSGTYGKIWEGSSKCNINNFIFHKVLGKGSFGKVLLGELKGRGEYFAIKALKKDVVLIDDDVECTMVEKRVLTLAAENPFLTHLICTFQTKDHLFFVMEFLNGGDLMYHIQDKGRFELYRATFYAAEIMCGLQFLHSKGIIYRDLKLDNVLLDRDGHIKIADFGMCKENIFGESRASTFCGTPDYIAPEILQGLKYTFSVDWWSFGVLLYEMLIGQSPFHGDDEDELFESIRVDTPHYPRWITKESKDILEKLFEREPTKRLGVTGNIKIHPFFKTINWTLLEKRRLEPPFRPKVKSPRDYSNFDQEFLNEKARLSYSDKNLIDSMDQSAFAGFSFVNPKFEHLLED
Sequence of Mitogen-activated protein kinase 14 (Homo sapiens) (Q16539 whole entry): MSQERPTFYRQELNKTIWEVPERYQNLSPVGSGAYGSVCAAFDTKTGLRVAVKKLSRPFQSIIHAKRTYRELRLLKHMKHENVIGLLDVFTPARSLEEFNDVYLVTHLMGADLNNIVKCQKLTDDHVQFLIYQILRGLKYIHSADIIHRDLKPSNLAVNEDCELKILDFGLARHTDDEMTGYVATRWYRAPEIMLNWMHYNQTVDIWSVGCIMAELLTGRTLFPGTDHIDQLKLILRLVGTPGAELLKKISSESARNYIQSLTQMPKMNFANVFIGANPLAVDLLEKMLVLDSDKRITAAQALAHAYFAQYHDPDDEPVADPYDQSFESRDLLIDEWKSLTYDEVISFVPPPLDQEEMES
Sequence of RAC-beta serine/threonine-protein kinase (Homo sapiens) (P31751 whole entry, the tested form may be a part): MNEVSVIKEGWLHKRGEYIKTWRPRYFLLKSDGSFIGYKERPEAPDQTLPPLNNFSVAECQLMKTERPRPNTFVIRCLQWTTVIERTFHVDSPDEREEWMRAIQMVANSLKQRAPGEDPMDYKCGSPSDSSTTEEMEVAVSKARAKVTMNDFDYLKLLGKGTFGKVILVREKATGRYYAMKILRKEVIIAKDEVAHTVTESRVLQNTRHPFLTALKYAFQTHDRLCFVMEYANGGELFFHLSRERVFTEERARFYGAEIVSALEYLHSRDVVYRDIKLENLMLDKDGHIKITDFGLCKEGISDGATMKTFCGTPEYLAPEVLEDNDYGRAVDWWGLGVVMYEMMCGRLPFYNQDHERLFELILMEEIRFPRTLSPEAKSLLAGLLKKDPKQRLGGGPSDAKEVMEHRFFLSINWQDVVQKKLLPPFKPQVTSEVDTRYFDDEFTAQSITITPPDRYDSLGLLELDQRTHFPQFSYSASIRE
Sequence of Bile salt export pump (O95342 whole entry): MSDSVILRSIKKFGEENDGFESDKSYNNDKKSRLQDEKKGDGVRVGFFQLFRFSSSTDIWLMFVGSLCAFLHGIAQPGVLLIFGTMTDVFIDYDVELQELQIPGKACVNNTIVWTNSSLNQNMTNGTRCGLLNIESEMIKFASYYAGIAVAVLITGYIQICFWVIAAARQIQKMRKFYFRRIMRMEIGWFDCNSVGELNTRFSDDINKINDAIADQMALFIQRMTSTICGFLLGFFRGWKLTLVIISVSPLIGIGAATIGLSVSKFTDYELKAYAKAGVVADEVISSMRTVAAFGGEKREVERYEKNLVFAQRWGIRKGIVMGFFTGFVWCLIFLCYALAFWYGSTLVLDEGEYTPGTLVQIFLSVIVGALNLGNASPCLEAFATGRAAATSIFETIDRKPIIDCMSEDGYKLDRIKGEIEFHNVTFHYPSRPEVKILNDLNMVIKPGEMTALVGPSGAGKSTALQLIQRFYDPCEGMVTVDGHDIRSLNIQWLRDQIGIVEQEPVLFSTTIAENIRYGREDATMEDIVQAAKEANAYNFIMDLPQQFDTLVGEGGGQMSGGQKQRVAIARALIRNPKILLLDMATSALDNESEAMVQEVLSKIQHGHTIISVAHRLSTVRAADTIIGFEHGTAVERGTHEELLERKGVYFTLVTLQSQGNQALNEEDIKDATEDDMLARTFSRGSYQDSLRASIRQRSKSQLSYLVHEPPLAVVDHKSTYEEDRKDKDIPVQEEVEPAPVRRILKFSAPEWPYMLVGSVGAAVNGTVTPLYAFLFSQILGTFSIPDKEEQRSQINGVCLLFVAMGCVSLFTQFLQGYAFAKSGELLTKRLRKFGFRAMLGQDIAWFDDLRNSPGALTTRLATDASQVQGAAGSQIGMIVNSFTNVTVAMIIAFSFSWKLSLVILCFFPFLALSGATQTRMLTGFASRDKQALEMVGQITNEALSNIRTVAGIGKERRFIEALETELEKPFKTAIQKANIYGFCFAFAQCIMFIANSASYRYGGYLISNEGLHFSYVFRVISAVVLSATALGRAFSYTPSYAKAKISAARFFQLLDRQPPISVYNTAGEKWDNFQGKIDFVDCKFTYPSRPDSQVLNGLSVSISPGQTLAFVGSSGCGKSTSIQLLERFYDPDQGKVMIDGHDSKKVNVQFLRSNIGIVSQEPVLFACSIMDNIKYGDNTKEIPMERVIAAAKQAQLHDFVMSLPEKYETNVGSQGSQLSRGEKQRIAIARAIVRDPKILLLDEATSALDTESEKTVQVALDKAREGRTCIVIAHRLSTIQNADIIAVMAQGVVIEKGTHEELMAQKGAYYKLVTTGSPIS

With H-YARAAARQARAKALNRQLGVAA-OH, the IC50 in series [1] turned out to be 5.8 µM. Besides, the Activity in [2] came out at 66%; in series [3] it was 100%; in [4] it was 68%; in series [5] it was 105%; in series [6] it was 95%; in [7], 96%.
On to `Cc1ccc(-c2ccc3c(ccc4sc5c(c43)NC[C@@H](C)NC5=O)n2)cn1`, for which the Activity entry in the series with Canis familiaris [8] and in the series on Canis familiaris [9] was “<= 25000%” throughout. Also, the IC50 in series [10] was 7 µM; in [11] it was 7 µM; with U-937 it was 0.15 µM; at Bile salt export pump, 7 µM; in series [15], 0.201 µM. The figures for the “inhibition (INH)” value in the series on Rattus norvegicus [12] and in the series with Rattus norvegicus [14] were 80% and over 90%, respectively. Moreover, in [13], the half-life was 9 h. Besides, the Tmax in [16] is 0.167 h.
H-KKKALNRQLGVAA-OH: in series [17], the inhibition was determined as 64%.
On to `COCCOCc1cccc(-c2ccc3c(ccc4sc5c(c43)NC[C@@H](C)NC5=O)n2)c1`, for which the IC50 (in series [10]; in series [11]; at Bile salt export pump) was 7 µM throughout.
As for `CC[C@H](C)[C@H](NC(=O)[C@H](CCCNC(=N)N)NC(=O)[C@H](CCCNC(=N)N)NC(=O)[C@H](CC(C)C)NC(=O)[C@H](Cc1c[nH]c2ccccc12)NC(=O)[C@H](C)NC(=O)[C@H](CCCCN)NC(=O)[C@@H](NC(=O)[C@H](CCCNC(=N)N)NC(=O)[C@H](CCCNC(=N)N)NC(=O)[C@H](CC(C)C)NC(=O)[C@@H](N)Cc1c[nH]c2ccccc12)[C@@H](C)CC)C(=O)N[C@@H](CCCCN)C(=O)N[C@@H](C)C(=O)N[C@@H](CC(C)C)C(=O)N[C@@H](CC(N)=O)C(=O)N[C@@H](CCCNC(=N)N)C(=O)N[C@@H](CCC(N)=O)C(=O)N[C@@H](CC(C)C)C(=O)NCC(=O)N[C@H](C(=O)N[C@@H](C)C(=O)N[C@@H](C)C(=O)O)C(C)C`, in [1], the IC50 came out at 0.74 µM. Moreover, the Activity in series [18] came out at 4%; in [19] it was 11%; in [21] it was 61%; in series [22], 12%; in series [24], 18%; in series [25], 0%. Besides, the inhibition at 10 µM with Fibroblast [20] amounted to 68%; in the series with Fibroblast [23], 76%. Further, the inhibition in series [17] was determined as 80%.
